Laboratory results taken from patent publication US7312245B2 (priority 2001, dated 2007).
Where two headings read alike, the source gives them in different places.

Experiments:
Type in all cases: in vivo
Pyricularia oryzae [1] = settings: granules applied to water surface at 3 kg/10 ares; rice Koshihikari; inoculated 30 days after application; lesions checked after 1 week
Pyricularia oryzae [2] = settings: nursery box treated with granules 50 g per box; rice Koshihikari; inoculated 30 days after transplantation; lesions counted after 1 week
Pyricularia oryzae [3] = settings: spray application of wettable powder diluted to 500 ppm; rice Koshihikari 2-leaf stage; spray-inoculated with Pyricularia oryzae spores; examined after 7 days

Structure (SMILES)	Grade of Effect (preventive value, rice blast controlling effect) (Pyricularia oryzae [1])	Grade of Effect (preventive value, rice blast controlling effect) (Pyricularia oryzae [2])	Grade of Effect (preventive value, rice blast controlling effect) (Pyricularia oryzae [3])
CC(CNC(=O)c1ccccc1)NC(=O)c1ccccc1 (stereo not drawn) [Formula (7), reference compound]	C (less than 50%)	C (less than 50%)	D (less than 50%)
CCC(CNC(=O)Oc1ccccc1)NC(=O)OC (stereo not drawn) [Formula (8), reference compound]	C (less than 50%)	C (less than 50%)	D (less than 50%)
COC(=O)NC(C)CNC(=O)c1ccc(Cl)cc1 (stereo not drawn) [compound 4]	A (From 80% to 100%)	A (From 80% to 100%)	A (100%)
COC(=O)NC(CNC(=O)c1ccccc1)C(C)C (stereo not drawn) [compound 26]	A (From 80% to 100%)	A (From 80% to 100%)	A (100%)
COC(=O)NC(CNC(=O)c1ccc(C)cc1)C(C)C (stereo not drawn) [compound 30]	A (From 80% to 100%)	A (From 80% to 100%)	A (100%)
COC(=O)NC(CNC(=O)c1ccccc1)c1ccccc1 (stereo not drawn) [compound 66, N-(methoxycarbonyl)-N′-benzoyl-1-phenyl-1,2-ethylenediamine]	A (From 80% to 100%)	A (From 80% to 100%)	A (100%)
Cc1ccc(C(=O)NCC(C)NC(=O)OC(C)C)cc1 (stereo not drawn) [compound 215]	A (From 80% to 100%)	A (From 80% to 100%)	A (100%)
CC(CNC(=O)c1ccc(C(C)(C)C)cc1)NC(=O)OC(C)C (stereo not drawn) [compound 216]	A (From 80% to 100%)	A (From 80% to 100%)	A (100%)
CC(C)OC(=O)NC(CNC(=O)c1ccccc1)C(C)C (stereo not drawn) [compound 236]	A (From 80% to 100%)	A (From 80% to 100%)	A (100%)
CC(C)OC(=O)NC(CNC(=O)c1ccc(Cl)cc1)C(C)C (stereo not drawn) [compound 237]	A (From 80% to 100%)	A (From 80% to 100%)	A (100%)
CC(C)OC(=O)NC(CNC(=O)c1ccc(Cl)c(Cl)c1)C(C)C (stereo not drawn) [compound 238]	A (From 80% to 100%)	A (From 80% to 100%)	A (100%)
Cc1ccccc1C(=O)NCC(NC(=O)OC(C)C)C(C)C (stereo not drawn) [compound 239]	A (From 80% to 100%)	A (From 80% to 100%)	A (100%)
Cc1ccc(C(=O)NCC(NC(=O)OC(C)C)C(C)C)cc1 (stereo not drawn) [compound 240]	A (From 80% to 100%)	A (From 80% to 100%)	A (100%)
CCc1ccc(C(=O)NCC(NC(=O)OC(C)C)C(C)C)cc1 (stereo not drawn) [compound 241]	A (From 80% to 100%)	A (From 80% to 100%)	A (100%)
CC(C)OC(=O)NC(CNC(=O)c1ccc2ccccc2c1)C(C)C (stereo not drawn) [compound 242]	A (From 80% to 100%)	A (From 80% to 100%)	A (100%)
Cc1ccc(C(=O)NCC(NC(=O)OC(C)C)C(C)C)s1 (stereo not drawn) [compound 243]	A (From 80% to 100%)	A (From 80% to 100%)	A (100%)
Cc1ccc(C(=O)NCC(C)(NC(=O)OC(C)C)C(C)C)cc1 (stereo not drawn) [compound 245]	A (From 80% to 100%)	A (From 80% to 100%)	A (100%)
Cc1ccc(C(=O)NC(C)C(NC(=O)OC(C)C)C(C)C)cc1 (stereo not drawn) [compound 246]	A (From 80% to 100%)	A (From 80% to 100%)	A (100%)
CC(C)OC(=O)NC(C(C)C)C(C)NC(=O)c1ccc(Cl)cc1 (stereo not drawn) [compound 247]	A (From 80% to 100%)	A (From 80% to 100%)	A (100%)
Cc1ccc(C(=O)NCC(NC(=O)OC(C)C)c2ccccc2)cc1 (stereo not drawn) [compound 279]	A (From 80% to 100%)	A (From 80% to 100%)	A (100%)
Cc1ccc(C(=O)NCC(NC(=O)OC(C)C)c2ccc(Cl)cc2)cc1 (stereo not drawn) [compound 284]	A (From 80% to 100%)	A (From 80% to 100%)	A (100%)
Cc1ccc(C(=O)NCC(Cc2ccccc2)NC(=O)OC(C)C)cc1 (stereo not drawn) [compound 289]	A (From 80% to 100%)	A (From 80% to 100%)	A (100%)
CC(C)OC(=O)NC(CNC(=O)c1ccc(Cl)cc1)Cc1ccccc1 (stereo not drawn) [compound 290, N-(4-chlorobenzoyl)-N′-(i-propoxycarbonyl)-3-phenyl-1,2-propanediamine]	A (From 80% to 100%)	A (From 80% to 100%)	A (100%)
CC(C)COC(=O)NC(CNC(=O)c1ccc(Cl)cc1)C(C)C (stereo not drawn) [compound 384]	A (From 80% to 100%)	A (From 80% to 100%)	A (100%)
Cc1ccc(C(=O)NCC(NC(=O)OCC(C)C)C(C)C)cc1 (stereo not drawn) [compound 387]	A (From 80% to 100%)	A (From 80% to 100%)	A (100%)
Cc1ccc(C(=O)NCC(NC(=O)OC(C)(C)C)C(C)C)cc1 (stereo not drawn) [compound 464]	B (50% or more and less than 80%)	B (50% or more and less than 80%)	B (80% or more and less than 100%)
